Experiment [1] concerns C57BL/6NTad mice, diet-induced obesity (DIO) mouse model. Briefly: 56-day diet-induced obesity (DIO) mouse weight loss study, DA versus DB (Example 3). The class given is in vivo. The conditions noted are these: DA 23.1 mg/kg BID PO. The text has this:
The 56-day study determined the behavioral effects of bitter taste receptor agonists denatonium acetate (DA) compared to denatonium benzoate (DB) in a diet-induced obesity (DIO) mouse model. […] The study duration was a 3-5 day acclimation period +28 day study period and 2-3 day testing period after study. […] The mice were C57BL/6NTad mice at least 12 weeks in age and 15 mice per group (low dose DA, higher dose DA, high dose DB and control). […] Metabolic biomarkers (blood glucose, blood insulin, blood HbA1c) were measured at the beginning and end of the study. The DA, DB or distilled water control was administered per ostium gavage (PO) at a volume of 5 mL/kg body weight.

The test system of experiment [2] is male SD rats. Briefly: Single oral dose, 24-hour cumulative food intake study in rats (Example 6, first in vivo study). The arrangement: species or system rat. The conditions noted are these: for Cumulative food intake as compared with vehicle: all indicated time intervals, DA 23.1 mg/kg, DB 26.8 mg/kg. How it is done:
This example compares efficacy of DA versus DB in food inhibition and body weight control. As a background, according to Avau et al., Sci. Rep. […] In our first in vivo study, 45 male SD rats (purchased from Envigo at 8-10 weeks of age) were divided into three groups (15 in each group), which were administered a single oral dose of vehicle (distilled water), 26.8 mg/kg of DB, or 23.1 mg/kg of DA respectively, with a 24-hour observational period, to compare the efficacy of DB versus DA in reducing food intake.

Experiment [3] has as its system male C57BL/6N DIO mice. Description: 56-day BID treatment of DIO mice: food consumption and body weight (Example 6, second in vivo study). The arrangement: species or system mouse. The settings on record: for Body weight gain as compared to vehicle treatment: high-fat diet, oral BID 56 days. The method, then:
In a second in vivo study, 45 male C57BL/6N DIO mice (purchased from Envigo at 18 weeks of age, fed with high-fat diet) were divided into three groups (15 in each group), which were orally administered vehicle (distilled water), 26.8 mg/kg of DB, or 23.1 mg/kg of DA respectively, twice daily (BID), with a 56-day treatment period to compare the efficacy of DB versus DA in food intake reduction and body weight control. Briefly, once weekly, the food weight for each cage was recorded at 0 hour and then 24 hours later, permitting calculation of food consumption for that 24-hour interval. In addition, starting from Day 0, the mice were weighed three times weekly (every 2-3 days).
The mean food consumption per animal for 24-hour intervals at indicated measurement days during the treatment period are shown in Table.
The mean absolute body weight change (in grams) and normalized body weight change (% of baseline) during 56-day treatment period of the three treatment groups are presented in […]. and Table 6.

In experiment [4] the test system is rodent obesity models. The conditions noted are these: benzoate salt of denatonium; cited from earlier work.
The test system of experiment [5] is healthy volunteers. The settings on record: cited from earlier work.
[6] abbreviates: oral BID, DA 23.1 mg/kg or DB 26.8 mg/kg.

Each structure is given as a SMILES string.

Turning to `CC(=O)[O-].CC[N+](CC)(CC(=O)Nc1c(C)cccc1C)Cc1ccccc1` [DA, Denatonium acetate], the “Average body weights at the indicated days (FIG. 1)” value in experiment [1] (56 days) is given as “lowest average body weights”. In addition, the “Serum insulin at the end of the 56 day study (FIG. 3)” value in experiment [1] (versus pre-treatment baseline and vehicle) is “close to baseline value (i.e., pre-treatment) and noticeably lower compared to the vehicle-treated group”. Also, the “Food intake reduction, DA versus DB” value in experiment [2] (23.1 mg/kg DA (57.4 μmol/kg) vs 26.8 mg/kg DB (60 μmol/kg)) is on record as “a greater food intake reduction”. Besides, in experiment [2], the “Cumulative food intake as compared with vehicle” value is “reduced cumulative food intake”. For the same compound, the “Body weight gain, DA versus DB” value in experiment [3] (Day 34 to Day 56, 23.1 mg/kg DA vs 26.8 mg/kg DB) is listed as “body weight gain was less”. In addition, the “Food consumption, DA versus DB” value in experiment [3] (all indicated measurement days except for Day 42, 23.1 mg/kg DA vs 26.8 mg/kg DB) is listed as “food consumption was less”. In addition, the “Body weight gain as compared to vehicle treatment” value in experiment [3] (DA 23.1 mg/kg, DB 26.8 mg/kg) is “less body weight gain”. Moreover, the “Food consumption compared to vehicle-dosed mice” value in experiment [3] (oral BID, 56 days, DA 23.1 mg/kg, DB 26.8 mg/kg) is reported as “nominally decreased food consumption”. Also, in experiment [3] (setting [6]), the “Mean normalized body weight (% of baseline) on study day 0” value is 100.0 % of baseline, the “Mean normalized body weight (% of baseline) on study day 25” value is reported as 100.0 % of baseline, the “Mean normalized body weight (% of baseline) on study day 28” value is listed as 100.0 % of baseline and the “Mean normalized body weight (% of baseline) on study day 30” value was 100.0 % of baseline.
For `CC[N+](CC)(CC(=O)Nc1c(C)cccc1C)Cc1ccccc1.O=C([O-])c1ccccc1` [DB, benzyl-[2-(2,6-dimethylanilino)-2-oxoethyl]-diethylazanium benzoate], in experiment [2], the “Cumulative food intake as compared with vehicle” value is on record as “reduced cumulative food intake”. Moreover, the “Food intake and weight gain in rodent obesity models” value in experiment [4] was “suppressed food intake and inhibited weight gain”. For the same compound, the “Body weight gain as compared to vehicle treatment” value in experiment [3] (DA 23.1 mg/kg, DB 26.8 mg/kg) is “less body weight gain”. In experiment [3] (setting [6]), the “Mean normalized body weight (% of baseline) on study day 0” value is given as 100.0 % of baseline, the “Mean normalized body weight (% of baseline) on study day 25” value is listed as 100.3 % of baseline, the “Mean normalized body weight (% of baseline) on study day 28” value was 100.2 % of baseline and the “Mean normalized body weight (% of baseline) on study day 30” value is listed as 100.5 % of baseline. The “Mean normalized body weight (% of baseline) on study day 4” value in experiment [3] (oral BID, DA 23.1 mg/kg or DB 26.8 mg/kg, day 4) is given as 100.5 % of baseline. Besides, the “Mean normalized body weight (% of baseline) on study day 7” value in experiment [3] (oral BID, DA 23.1 mg/kg or DB 26.8 mg/kg, day 7) is listed as 99.7 % of baseline. In addition, the “Mean normalized body weight (% of baseline) on study day 9” value in experiment [3] (oral BID, DA 23.1 mg/kg or DB 26.8 mg/kg, day 9) was 99.4 % of baseline. Also, the “Mean normalized body weight (% of baseline) on study day 11” value in experiment [3] (oral BID, DA 23.1 mg/kg or DB 26.8 mg/kg, day 11) is 99.0 % of baseline. Also, the “Mean normalized body weight (% of baseline) on study day 14” value in experiment [3] (oral BID, DA 23.1 mg/kg or DB 26.8 mg/kg, day 14) is on record as 99.3 % of baseline. Moreover, the “Mean normalized body weight (% of baseline) on study day 16” value in experiment [3] (oral BID, DA 23.1 mg/kg or DB 26.8 mg/kg, day 16) is on record as 98.0 % of baseline. Moreover, the “Mean normalized body weight (% of baseline) on study day 18” value in experiment [3] (oral BID, DA 23.1 mg/kg or DB 26.8 mg/kg, day 18) was 97.9 % of baseline. In addition, the “Mean normalized body weight (% of baseline) on study day 21” value in experiment [3] (oral BID, DA 23.1 mg/kg or DB 26.8 mg/kg, day 21) is listed as 99.5 % of baseline. Also, in experiment [3] (oral BID, DA 23.1 mg/kg or DB 26.8 mg/kg, day 23), the “Mean normalized body weight (% of baseline) on study day 23” value is recorded as 100.5 % of baseline. Also, the “Mean normalized body weight (% of baseline) on study day 32” value in experiment [3] (oral BID, DA 23.1 mg/kg or DB 26.8 mg/kg, day 32) was 102.8 % of baseline. Also, in experiment [3] (oral BID, DA 23.1 mg/kg or DB 26.8 mg/kg, day 34), the “Mean normalized body weight (% of baseline) on study day 34” value is reported as 103.6 % of baseline. Moreover, the “Mean normalized body weight (% of baseline) on study day 36” value in experiment [3] (oral BID, DA 23.1 mg/kg or DB 26.8 mg/kg, day 36) is recorded as 104.1 % of baseline. Further, the “Mean normalized body weight (% of baseline) on study day 39” value in experiment [3] (oral BID, DA 23.1 mg/kg or DB 26.8 mg/kg, day 39) was 104.7 % of baseline. Moreover, the “Mean normalized body weight (% of baseline) on study day 41” value in experiment [3] (oral BID, DA 23.1 mg/kg or DB 26.8 mg/kg, day 41) was 105.3 % of baseline. The “Mean normalized body weight (% of baseline) on study day 46” value in experiment [3] (oral BID, DA 23.1 mg/kg or DB 26.8 mg/kg, day 46) is 106.0 % of baseline. Besides, in experiment [3] (oral BID, DA 23.1 mg/kg or DB 26.8 mg/kg, day 49), the “Mean normalized body weight (% of baseline) on study day 49” value is 107.8 % of baseline. Besides, the “Mean normalized body weight (% of baseline) on study day 51” value in experiment [3] (oral BID, DA 23.1 mg/kg or DB 26.8 mg/kg, day 51) was 107.8 % of baseline. In addition, the “Mean normalized body weight (% of baseline) on study day 53” value in experiment [3] (oral BID, DA 23.1 mg/kg or DB 26.8 mg/kg, day 53) is recorded as 107.4 % of baseline. The “Mean normalized body weight (% of baseline) on study day 56” value in experiment [3] (oral BID, DA 23.1 mg/kg or DB 26.8 mg/kg, day 56) is given as 108.4 % of baseline. For the same compound, in experiment [5] (1 μmol/kg DB), the “Nutrient volume tolerance and satiation” value was “decreased nutrient volume tolerance and increased satiation”. Moreover, the “Gastric motility, nutrient volume tolerance, hunger ratings and satiation” value in experiment [5] (intragastric administration) was “attenuated inter-digestive gastric motility, reduced nutrient volume tolerance, decreased hunger ratings, and increased satiation post meal”.

These data come from US20220280457A1, “ORAL PHARMACEUTICAL IMMEDIATE RELEASE COMPOSITION AND METHOD OF TREATMENT FOR WEIGHT LOSS” (AARDVARK THERAPEUTICS INC., priority 2019, published 2022).
